In US9458110B2, “Phenylpyrazole derivatives as potent ROCK1 and ROCK2 inhibitors” (BRISTOL-MYERS SQUIBB COMPANY, priority 2013, dated 2016) one finds IC50 data, which are given here for 26 molecules.

Each structure is given as a SMILES string. Bounds are passed on as bounds.

Test [1] addresses ROCK2 (Homo sapiens (Human), UniProt O75116). In words: ROCK assay (Caliper LABCHIP peptide phosphorylation), ROCK2.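 Note: reaction stopped with EDTA, then phosphorylated and unphosphorylated peptide resolved by microfluidic electrophoresis, kinase inhibition computed at each compound concentration in dose-response series, DMSO under 2%.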 The test is classed as biochemical. To be noted: 5 μM ATP, 1.5 μM peptide substrate.
The target of test [2] is ROCK1 (Homo sapiens (Human), UniProt Q13464). The test can be described thus: ROCK assay (Caliper LABCHIP peptide phosphorylation), ROCK1.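 Note: Read-out is separation of phosphorylated from unphosphorylated peptide, with kinase activity inhibition computed at every concentration of a dose-response series.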 It is filed as biochemical. The following applies: 5 μM ATP, 1.5 μM peptide substrate.
Sequence of ROCK1 (Q13464 whole entry, species assumed): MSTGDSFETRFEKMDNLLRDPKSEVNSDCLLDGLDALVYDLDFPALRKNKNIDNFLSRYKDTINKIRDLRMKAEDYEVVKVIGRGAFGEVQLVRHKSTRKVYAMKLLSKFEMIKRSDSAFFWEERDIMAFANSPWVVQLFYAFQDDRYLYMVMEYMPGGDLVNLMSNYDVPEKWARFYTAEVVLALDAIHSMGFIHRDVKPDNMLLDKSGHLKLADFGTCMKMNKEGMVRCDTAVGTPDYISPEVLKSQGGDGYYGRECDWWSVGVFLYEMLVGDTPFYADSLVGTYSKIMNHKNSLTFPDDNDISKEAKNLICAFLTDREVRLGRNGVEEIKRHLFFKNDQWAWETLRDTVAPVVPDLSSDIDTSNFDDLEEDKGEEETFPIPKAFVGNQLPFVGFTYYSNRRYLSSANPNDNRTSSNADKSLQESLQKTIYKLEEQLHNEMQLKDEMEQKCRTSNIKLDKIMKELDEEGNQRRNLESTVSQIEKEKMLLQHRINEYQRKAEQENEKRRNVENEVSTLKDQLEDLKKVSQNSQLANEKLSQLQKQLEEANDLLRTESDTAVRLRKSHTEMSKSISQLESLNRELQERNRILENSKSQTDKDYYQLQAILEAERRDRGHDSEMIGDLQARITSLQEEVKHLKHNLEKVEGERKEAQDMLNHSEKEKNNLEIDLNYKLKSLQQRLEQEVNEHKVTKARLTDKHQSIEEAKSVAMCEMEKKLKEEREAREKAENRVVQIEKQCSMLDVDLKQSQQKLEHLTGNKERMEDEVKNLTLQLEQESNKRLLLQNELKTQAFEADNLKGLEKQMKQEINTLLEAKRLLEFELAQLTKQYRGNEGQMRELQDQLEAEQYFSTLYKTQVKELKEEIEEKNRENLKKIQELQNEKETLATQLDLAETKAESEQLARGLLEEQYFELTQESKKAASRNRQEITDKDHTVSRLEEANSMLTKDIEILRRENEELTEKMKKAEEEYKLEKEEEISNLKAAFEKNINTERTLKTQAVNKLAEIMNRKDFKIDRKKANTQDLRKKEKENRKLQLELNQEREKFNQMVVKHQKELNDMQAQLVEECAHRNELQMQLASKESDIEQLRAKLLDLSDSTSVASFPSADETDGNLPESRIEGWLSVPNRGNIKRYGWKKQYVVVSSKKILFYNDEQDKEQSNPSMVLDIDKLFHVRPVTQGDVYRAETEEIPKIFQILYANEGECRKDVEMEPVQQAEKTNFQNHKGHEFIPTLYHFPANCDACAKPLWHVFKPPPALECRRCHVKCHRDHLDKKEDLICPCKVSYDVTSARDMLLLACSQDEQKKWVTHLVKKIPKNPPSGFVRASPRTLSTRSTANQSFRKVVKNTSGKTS

Sequence of ROCK2 (O75116 whole entry, species assumed): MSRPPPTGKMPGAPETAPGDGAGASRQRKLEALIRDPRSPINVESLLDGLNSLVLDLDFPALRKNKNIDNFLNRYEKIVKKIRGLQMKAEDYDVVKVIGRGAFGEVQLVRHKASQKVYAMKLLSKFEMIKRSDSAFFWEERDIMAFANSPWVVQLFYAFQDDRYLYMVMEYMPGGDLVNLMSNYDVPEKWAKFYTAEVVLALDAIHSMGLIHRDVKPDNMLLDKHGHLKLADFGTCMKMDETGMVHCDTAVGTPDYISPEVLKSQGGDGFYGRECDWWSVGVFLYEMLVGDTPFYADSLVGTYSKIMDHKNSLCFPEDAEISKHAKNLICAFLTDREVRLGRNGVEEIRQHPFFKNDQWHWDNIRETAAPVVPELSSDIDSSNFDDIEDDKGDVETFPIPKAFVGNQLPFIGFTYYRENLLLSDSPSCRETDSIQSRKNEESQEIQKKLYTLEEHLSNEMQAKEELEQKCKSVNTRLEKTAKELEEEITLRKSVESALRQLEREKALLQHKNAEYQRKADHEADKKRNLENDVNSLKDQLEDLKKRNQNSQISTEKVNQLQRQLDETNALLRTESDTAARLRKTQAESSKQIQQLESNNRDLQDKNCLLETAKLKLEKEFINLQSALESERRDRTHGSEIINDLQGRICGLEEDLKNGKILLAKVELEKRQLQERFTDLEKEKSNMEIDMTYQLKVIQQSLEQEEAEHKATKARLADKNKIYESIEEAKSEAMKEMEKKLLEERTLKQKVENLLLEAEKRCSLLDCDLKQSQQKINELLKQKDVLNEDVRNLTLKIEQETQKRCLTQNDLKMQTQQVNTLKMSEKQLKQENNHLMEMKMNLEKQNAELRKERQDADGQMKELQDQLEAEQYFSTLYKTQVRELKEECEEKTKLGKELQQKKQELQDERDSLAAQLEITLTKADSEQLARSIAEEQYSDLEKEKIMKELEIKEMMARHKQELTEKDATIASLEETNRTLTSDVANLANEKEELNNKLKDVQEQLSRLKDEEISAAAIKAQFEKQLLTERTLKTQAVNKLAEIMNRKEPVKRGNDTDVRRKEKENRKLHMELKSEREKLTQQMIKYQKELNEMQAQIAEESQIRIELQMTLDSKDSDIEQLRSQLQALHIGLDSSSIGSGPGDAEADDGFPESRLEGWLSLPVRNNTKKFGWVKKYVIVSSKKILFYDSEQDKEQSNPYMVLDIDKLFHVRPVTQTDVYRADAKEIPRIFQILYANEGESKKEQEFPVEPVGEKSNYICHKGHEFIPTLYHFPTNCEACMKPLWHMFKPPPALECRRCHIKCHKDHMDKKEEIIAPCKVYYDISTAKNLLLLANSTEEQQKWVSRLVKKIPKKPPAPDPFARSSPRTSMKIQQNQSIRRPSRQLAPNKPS

With `COc1cc(C(=O)N(C)Cc2ccccc2)ccc1-c1cn[nH]c1` [Example 71, N-benzyl-3-methoxy-N-methyl-4-(1H-pyrazol-4-yl)benzamide], the IC50 in test [1] amounted to 494 nM; in test [2] it was 1340 nM.
For `COc1cc(C(=O)NCc2c(F)ccc(OC)c2F)ccc1-c1cn[nH]c1` [Example 51, N-(2,6-difluoro-3-methoxybenzyl)-3-methoxy-4-(1H-pyrazol-4-yl)benzamide], in that order: 5.35 nM and 14.8 nM.
For `CC(O)c1cc(C(=O)NC(C)c2ccccc2F)ccc1-c1cn[nH]c1` (stereo not shown) [Example 278, N-[1-(2-fluorophenyl)ethyl]-3-(1-hydroxyethyl)-4-(1H-pyrazol-4-yl)benzamide] the same measures were 1320 nM and 1780 nM.
For `COc1cccc([C@@H](C)NC(=O)c2ccc(-c3cn[nH]c3)cc2S(C)(=O)=O)c1` [Example 61, (R)-N-(1-(3-Methoxyphenyl)ethyl)-2-(methylsulfonyl)-4-(1H-pyrazol-4-yl)benzamide] the same measures were 4590 nM and > 2000 nM.
On to `C[C@@H](NC(=O)c1ccc(-c2cn[nH]c2)c(OC(F)F)c1)c1ccccc1` [Example 156, 3-(difluoro-methoxy)-N-[(1R)-1-phenylethyl]-4-(1H-pyrazol-4-yl)benzamide], for which the IC50 in test [1] stood at 4 nM; in test [2], 11.4 nM.
Consider `CC(O)c1cc(C(=O)NCc2c(F)cccc2Cl)ccc1-c1cn[nH]c1` (stereo not shown) [Example 289, N-[(2-chloro-6-fluorophenyl)methyl]-3-(1-hydroxyethyl)-4-(1H-pyrazol-4-yl)benzamide], for which the IC50 in test [1] is 74.3 nM; in test [2], 275 nM.
For `COc1cc(C(=O)NCC(O)c2cccc(O)c2)ccc1-c1cn[nH]c1` (stereo not shown) [Example 131, N-[2-hydroxy-2-(3-hydroxyphenyl)ethyl]-3-methoxy-4-(1H-pyrazol-4-yl)benzamide] the same measures were 12.7 nM and 42 nM.
As to `COc1cc(C(=O)NC(CCN(C)C)c2ccccc2)ccc1-c1cn[nH]c1` (stereo not shown) [Example 179, N-[3-(dimethylamino)-1-phenylpropyl]-3-methoxy-4-(1H-pyrazol-4-yl)benzamide], the figures for the 50% inhibitory concentration (IC50) in test [1] and in test [2] were 7.75 nM and 1.53 nM, respectively.
For `CCOc1cc(C(=O)N[C@H](C)c2ccc(F)cc2)ccc1-c1cn[nH]c1` [Example 191, 3-ethoxy-N-[(1R)-1-(4-fluorophenyl)ethyl]-4-(1H-pyrazol-4-yl)benzamide], the half-inhibitory concentration (IC50) came out at 74.6 nM in test [1] and 205 nM in test [2].
For `COc1cccc(CNC(=O)c2ccc(-c3c[nH]nc3C)c(OC)c2)c1` [Example 56, 3-Methoxy-N-(3-methoxybenzyl)-4-(3-methyl-1H-pyrazol-4-yl)benzamide] the same measures were 204 nM and 461 nM.
For `COc1cc(C(=O)NCc2c(F)ccc(F)c2Cl)ccc1-c1cn[nH]c1` [Example 88, N-[(2-chloro-3,6-difluorophenyl)methyl]-3-methoxy-4-(1H-pyrazol-4-yl)benzamide], in that order: 3.99 nM and 8.46 nM.
For `COc1cc(C(=O)NC[C@@H](O)c2cccc(Cl)c2)ccc1-c1cn[nH]c1` [Example 127, N-[(2S)-2-(3-chlorophenyl)-2-hydroxyethyl]-3-methoxy-4-(1H-pyrazol-4-yl)benzamide], in that order: 32.1 nM and 23.4 nM.
On to `CC(O)c1cc(C(=O)NCc2c(F)cccc2Cl)ccc1-c1cn[nH]c1` (stereo not shown) [Example 290, N-[(2-chloro-6-fluorophenyl)methyl]-3-(1-hydroxyethyl)-4-(1H-pyrazol-4-yl)benzamide], for which the values for the IC50 in test [1] and in test [2] were 1760 nM and 1950 nM, respectively.
For `COc1cc(C(=O)NCc2ccc(Br)cc2Cl)ccc1-c1cn[nH]c1` [Example 45, N-(4-bromo-2-chlorobenzyl)-3-methoxy-4-(1H-pyrazol-4-yl)benzamide], in that order: 4.69 nM and 16.9 nM.
Turning to `COc1cc(CNC(=O)c2ccc(-c3cn[nH]c3)c(OC)c2)ccc1F` [Example 96, N-[(4-fluoro-3-methoxyphenyl)methyl]-3-methoxy-4-(1H-pyrazol-4-yl)benzamide], the IC50 in test [1] amounted to 2.41 nM; in test [2], 26 nM.
For `COc1cc(C(=O)NCc2c(F)ccc(C)c2F)ccc1-c1cn[nH]c1` [Example 80, N-(2,6-difluoro-3-methylbenzyl)-3-methoxy-4-(1H-pyrazol-4-yl)benzamide], in that order: 2.97 nM and 13.2 nM.
In the case of `COc1cc(C(=O)NC(C)c2c(F)cccc2Cl)ccc1-c1cn[nH]c1` (stereo not shown) [Example 221, N-[1-(2-chloro-6-fluorophenyl)ethyl]-3-methoxy-4-(1H-pyrazol-4-yl)benzamide], the half-maximal inhibitory concentration (IC50) in test [1] was 3.43 nM; in test [2], 16.7 nM.
For `COc1cc(C(=O)NCc2ccc(F)c(OC)c2F)ccc1-c1cn[nH]c1` [Example 50, N-(2,4-difluoro-3-methoxybenzyl)-3-methoxy-4-(1H-pyrazol-4-yl)benzamide], in that order: 16.7 nM and 64 nM.
For `CC[C@@H](NC(=O)c1ccc(-c2cn[nH]c2)c(OC)c1)c1c(F)cccc1F` [Example 264, N-[(1R)-1-(2,6-Difluorophenyl)propyl]-3-methoxy-4-(1H-pyrazol-4-yl)benzamide] the same measures were 23.4 nM and 77.3 nM.
For `COc1cc(C(=O)NC(C)c2ccccc2OC)ccc1-c1cn[nH]c1` (stereo in doubt) [Example 173, 3-methoxy-N-[(1R)-1-(2-methoxyphenyl)ethyl]-4-(1H-pyrazol-4-yl)benzamide] the same measures were 27.2 nM and 72.4 nM.
Consider `COc1cccc(CCNC(=O)c2ccc(-c3cn[nH]c3)c(OC)c2)c1` [Example 114, 3-methoxy-N-[2-(3-methoxyphenyl)ethyl]-4-(1H-pyrazol-4-yl)benzamide], for which the IC50 in test [1] worked out at 59.6 nM; in test [2], 92.9 nM.
For the molecule `COc1cc(C(=O)NC(CO)c2ccccc2F)ccc1-c1cn[nH]c1` (stereo not shown) [Example 166, N-[1-(2-fluorophenyl)-2-hydroxyethyl]-3-methoxy-4-(1H-pyrazol-4-yl)benzamide], the IC50 in test [1] was 2.17 nM; in test [2] it was 7.22 nM.
For `CC(O)c1cc(C(=O)NC(C)c2c(F)cccc2F)ccc1-c1cn[nH]c1` (stereo not shown) [Example 287, N-[1-(2,6-difluorophenyl)ethyl]-3-(1-hydroxyethyl)-4-(1H-pyrazol-4-yl)benzamide] the same measures were 27.8 nM and 111 nM.
In the case of `Cc1cc(C(=O)NCc2cccc(C(=O)NC3CC3)c2)ccc1-c1cn[nH]c1` [Example 244, N-{[3-(cyclopropyl-carbamoyl)phenyl]methyl}-3-methyl-4-(1H-pyrazol-4-yl)benzamide], the IC50 in test [1] was 0.86 nM; in test [2], 4.22 nM.
For `COc1cc(C(=O)NCc2cccc(C(=O)O)c2)ccc1-c1cn[nH]c1` [Example 64, 3-((3-Methoxy-4-(1H-pyrazol-4-yl)benzamido)methyl)benzoic acid] the same measures were 1.2 nM and 7.7 nM.
`COc1cc(C(=O)NCc2ccc(OCC(C)C)cc2Cl)ccc1-c1cn[nH]c1` [Example 46, N-(2-chloro-4-isobutoxybenzyl)-3-methoxy-4-(1H-pyrazol-4-yl)benzamide]: the IC50 came to 786 nM in test [1] and 1880 nM in test [2].
